Assay results taken from ChEMBL document CHEMBL2016549, “Bioconversion of silybin to phase I and II microbial metabolites with retained antioxidant activity” (Bioorg Med Chem, 2012).

How the values were obtained:
[1] = test system: Radical scavenging activity; assay: Antioxidant activity assessed as DPPH radical scavenging activity by densitometric analysis; format: functional
[2] = test system: Radical scavenging activity; assay: Antioxidant activity assessed as DPPH radical scavenging activity by densitometric analysis relative to ascorbic acid; format: functional

Row | SMILES | IC50 [1] | Activity [2]
1 | COc1cc(C2Oc3cc([C@H]4Oc5cc(OS(=O)(=O)O)cc(O)c5C(=O)[C@@H]4O)ccc3OC2CO)ccc1O (mixture of isomers) | 831 µM | 
2 | COc1cc(C2Oc3cc([C@H]4Oc5cc(O)cc(O)c5C(=O)[C@@H]4O)ccc3OC2CO)ccc1O (mixture of isomers) [SILIBININ] | 284 µM | 

Now those with a lower IC50 [1], led by results:

Row | IC50 [1] | SMILES | Activity [2]
3 | 7.7 µM | O=C1O[C@H]([C@@H](O)CO)C(O)=C1O [ASCORBIC ACID] | 
4 | 30.3 µM | COc1cc(C2Oc3cc([C@H]4Oc5c(O)c(O)cc(O)c5C(=O)[C@@H]4O)ccc3OC2CO)ccc1O (mixture of isomers) | 25%
5 | 99.7 µM | COc1cc(C2Oc3cc(-c4oc5cc(OS(=O)(=O)O)cc(O)c5c(=O)c4O)ccc3OC2CO)ccc1O (mixture of isomers) | 
